Experiments:
[1] = tested on: Rat2TK- cells and C33 human cervical carcinoma cells transfected with pMN-HSVtk; assay: GVC sensitivity of pMN-HSVtk transfectants; type: cell-based; conditions: in vitro, even in low concentrations
Experimental: A plasmid construct in which HSVtk was cloned downstream of the MN promoter region Bd3, containing both proximal and distant regulatory elements of MN, was prepared. That plasmid pMN-HSVtk was transfected to Rat2TK-cells and C33 human cervical carcinoma cells using calcium phosphate precipitation and lipofection, respectively. Transfectants were tested for expression of HSVtk and GVC sensitivity. Analysis of the transfectants has shown the remarkable cytotoxic in vitro effect of GVC even in low concentrations (up to 95% of cells killed).

[2] = tested on: NIH3T3 cells freshly transformed with the [pGD.MN+MLV] complex; assay: Morphologic transformation of NIH3T3 cells by [pGD.MN+MLV] complex in the presence of acetazolamide; conditions: 10^−5M, 4 days of incubation
MAb M75 = assay: Competition ELISA with M75 on adsorbed GST-MN; type: binding, mouse; conditions: for competition in ELISA for M75: 100 μg/ml; for activity of phage-display nonapeptides in competition ELISA: peptides of 7+2 aa
Experimental: ELISA. Purified GST-MN [Zavada et al. (1993), supra] at concentration 10 ng/ml in carbonate buffer pH 9.2 was adsorbed for 3 h in Maxisorb strips (NUNC). After washing and blocking (1 h) with 0.05% Tween 20 in PBS, 50 μl/well of the antibody+antigen mixtures were added. […] These mixtures were adsorbed for 1.5 h, followed by washing with Tween-PBS. Bound antibody was detected by antimouse IgG conjugate with peroxidase (SwAM-Px, SEVAC, Prague), diluted 1:1000. In the color reaction OPD (o-phenylenediamine dihydrochloride, Sigma) 1 mg/ml in 0.1 M citrate buffer pH 5.0 was used. To this H2O2 was added to final concentration 0.03%. This system is balanced so as to allow assay for antigen competing for M75 as well as for peptides binding to the epitope of immobilized GST-MN.
Identification of the epitope recognized by Mab M75. Preliminary mapping of M75 epitope employing partial sequences of extracellular parts of MN/CA9 cDNA expressed from bacterial vectors and tested on Western blots located it in PG region For exact mapping, our strategy was to synthesize partially overlapping oligopeptides of 15-25 aa covering the PG domain and test them in competition ELISA with M75. According to the results, this was followed by a series of 6-12 aa oligopeptides. A major part of the PG domain consists of a 6-fold tandem repeat of 6 aa (aa 61-96) [SEQ ID NO: 97]; 4 repeats are identical (GEEDLP) [SEQ ID NO: 98] and 2 contain 2 aa exchanged (SEEDSP [SEQ ID NO: 141] and REEDPP [SEQ ID NO: 142]).

MN/CA IX = MN/CA IX (Homo sapiens, UniProt Q16790); assay: Cell adhesion assay on immobilized purified MN/CA IX (Example 2); type: cell-based
Experimental: The series of oligopeptides were tested by the cell adhesion assay procedure essentially as described above in Example 1. The synthetic oligopeptides were immobilized on hydrophobic plastic surfaces to see if they would mediate the attachment, spreading and growth of cells. Also investigated were whether the oligopeptides or antibodies inhibited attachment of cells (NIH3T3, HeLa and CGL1) to purified MN protein coated onto such plastic surfaces. The MN protein was affinity purified on agarose covalently linked to sulfonamide, as the MN protein encompasses a CA domain.
Cell adhesion assay. The conditions of the assay are basically as described in Example 1. Briefly, 1 μg/ml of purified MN/CA IX in 50 mM mono/bicarbonate buffer, pH 9.2, was adsorbed in 30 μl drops on the bottom of bacteriological 5 cm Petri dishes for 1.5 hr. Then the drops were removed by aspiration and the dishes were 3× rinsed with PBS and blocked with 50% FCS in culture medium for 30 min. There were two variants of the test. In the first one, the whole bottom of the Petri dish was blocked with 50% FCS, and the dishes were seeded with 5 ml of cell suspension (10^5 cells/ml). After overnight incubation, the cultures were rinsed with PBS, fixed and stained. In the other variant, only the area of adsorbed MN/CA IX was blocked and on top of MN/CA IX dots were added 30 μl drops of cell suspension in growth medium, containing added oligopeptides (or control without peptides). After incubation, rinsing and fixation, the cultures were stained with 0.5% Trypan blue in 50 mM Tris buffer pH 8.5 for 1 h, rinsed with water and dried. Stained areas of attached cells were extracted with 10% acetic acid, the extracts transferred to 96-well plates and absorbance was measured at 630 nm on microplate reader.

Nc1nc(O)c2ncn(COC(CO)CO)c2n1 [GVC, ganciclovir]
cells killed [1]: up to 95%

CC(=O)Nc1nnc(S(N)(=O)=O)s1 [acetazolamide]
difference between transformed cells growing in presence or absence of the drug [2]: No difference

ADLPGEEA [SEQ ID NO: 134]
serological activity in competition ELISA with M75 (MAb M75): none of the following still shorter oligopeptides (6+2aa) competed

ADLPGEEDA [SEQ ID NO. 129]
competition in ELISA for M75 (MAb M75): negative

AEDLPGEA [SEQ ID NO: 133]
serological activity in competition ELISA with M75 (MAb M75): none of the following still shorter oligopeptides (6+2aa) competed

AEDLPGEEA [SEQ ID NO: 128]
competition in ELISA for M75 (MAb M75): negative

AEEDLPGA [SEQ ID NO: 132]
serological activity in competition ELISA with M75 (MAb M75): none of the following still shorter oligopeptides (6+2aa) competed

AEEDLPGEA [SEQ ID NO: 127]
competition in ELISA for M75 (MAb M75): negative

AGEEDLPA [SEQ ID NO: 131]
serological activity in competition ELISA with M75 (MAb M75): none of the following still shorter oligopeptides (6+2aa) competed

AGQTRSPLA [SEQ ID NO: 140]
activity of phage-display nonapeptides in competition ELISA (MAb M75): inactive | activity of phage-display nonapeptides in cell adhesion inhibition (MN/CA IX): inactive

AITFNAQYA [SEQ ID NO: 138]
activity of phage-display nonapeptides in competition ELISA (MAb M75): highest activity | activity of phage-display nonapeptides in cell adhesion inhibition (MN/CA IX): highest activity

AKKMKRRKA [SEQ ID NO: 137]
activity of phage-display nonapeptides in competition ELISA (MAb M75): less active | activity of phage-display nonapeptides in cell adhesion inhibition (MN/CA IX): less active

ALPGEEDA [SEQ ID NO: 135]
serological activity in competition ELISA with M75 (MAb M75): none of the following still shorter oligopeptides (6+2aa) competed

ALPGEEDLA [SEQ ID NO: 130]
competition in ELISA for M75 (MAb M75): negative

APGEEDLA [SEQ ID NO: 136]
serological activity in competition ELISA with M75 (MAb M75): none of the following still shorter oligopeptides (6+2aa) competed

APGEEDLPA [SEQ ID NO: 125]
serological activity in competition ELISA with M75 (MAb M75): minimum serologically active sequence

ASASAPVSA [SEQ ID NO: 139]
activity of phage-display nonapeptides in competition ELISA (MAb M75): marginally positive | activity of phage-display nonapeptides in cell adhesion inhibition (MN/CA IX): marginally positive only in ELISA

DLPGEEDLPGEE [SEQ ID NO: 122]
serological activity in competition ELISA with M75 (MAb M75): serologically active

EDLPGEEDLP [SEQ ID NO: 121]
serological activity in competition ELISA with M75 (MAb M75): serologically active

EDPPGEEDLPGEEDLPGEEDLPEVC [SEQ ID NO: 106, aa 75-98 of the PG region, cysteine added onto the C-end]
concentration causing 50% inhibition in competition ELISA (MAb M75): 1 ng/mL

EEDLPGEEDLPG [SEQ ID NO: 120]
serological activity in competition ELISA with M75 (MAb M75): serologically active

EVKPKSEEEGSLKLE [SEQ ID NO: 118, aa 97-111 of the PG region]
serological activity in competition ELISA with M75 (MAb M75): inactive

GEEDLPGEEDLP [SEQ ID NO: 119]
serological activity in competition ELISA with M75 (MAb M75): serologically active

GEEDLPSEEDSPREEDPPGEEDLPGEC [SEQ ID NO: 105, aa 61-85 of the PG region, cysteine added onto the C-end]
fold less active than SEQ ID NOS: 104 and 106 in competition ELISA (MAb M75): 1000 ×

GGSSGEDDPLGEEDLPSEEDSPC [SEQ ID NO: 104, aa 51-72 of the PG region, cysteine added onto the C-end]
concentration causing 50% inhibition in competition ELISA (MAb M75): 1 ng/mL

LPGEEDLPGEED [SEQ ID NO: 123]
serological activity in competition ELISA with M75 (MAb M75): serologically active

PGEEDLPGEEDL [SEQ ID NO: 124]
serological activity in competition ELISA with M75 (MAb M75): serologically active
